Experimental data as given in US20110152207A1, “USE OF VITAMIN D GLYCOSIDES AND SULFATES FOR TREATMENT OF DISEASE” (priority 2009, published 2011).
Marks after values point to notes of the source that are not given here.

How the values were obtained:
[1] = Plasma 1,25-D3 concentration in mice after a single oral dose (RIA)
[2] = test system: DU-145 cells; assay: DU-145 cell proliferation (CELLTITER BLUE); assay type: cell-based, human; conditions: for Proliferation index (Mean ± SEM): 4 days, control = 100
Experimental: LNCaP cells (ATCC # CRL-1740) are malignant prostate cancer cells originally obtained from a lymph node of a person whose prostatic cancer had metastasized to the lymph node. LNCaP cells were grown in tissue culture using RPMI-1640 media with 10% fetal bovine serum. Wells of two 48-well tissue culture plates were seeded with 5000 LNCaP cells/well. […] Half the media was replaced with fresh media with treatments on the third day of the treatment period. By day 6 of treatment, wells of control untreated cells were approximately 60% confluent. The live cell numbers in each well at the end of treatment were assessed using the “CELLTITER BLUE”-brand assay kit (Promega Corp., Madison, Wis.). The assay is based on the ability of living cells to convert a redox dye (resazurin) into a fluorescent end product (resorufin). […] A similar study was performed using a second human-derived prostatic cancer cell line known as DU-145 (ATCC# HTB-81). […] Exp. Med. Biol. 1995 375:53-63). The DU-145 cells were propagated in Eagle's Minimum Essential Medium with 10% fetal bovine serum. The cells were treated in culture for just 4 days, with half the media replaced with fresh media on day 3 of treatment. Cells were 40% confluent at the end of treatment.

[3] = test system: DSS-induced inflammation of the lower colon; assay: Dextran sodium sulfate (DSS) mouse model of IBD; assay type: in vivo; conditions: DSS mice; for Fecal Blood Score: scale 0-3
Description: (§1) In this example, β-gluc-1,25-D3 compounds, alone or in combination with 25-β-glucuronide-25-hydroxyvitamin D3 compounds (hereinafter β-gluc-25-D3) were incorporated into the diet of mice and compared to equimolar 1,25-D3 with respect to therapeutic effects on IBD and induction of calcemia. A standard mouse model of IBD comprising administering dextran sodium sulfate (DSS) to induce inflammation of the lower colon was used to study these effects. Vitamin D treatments were first initiated for 4 days. After 4 days, mice were fed DSS-water for 7 days, allowed one day to recover, and sacrificed. Colon length, plasma calcium, fecal blood score, and body weight were assayed. Colon length is a standard marker of intestinal inflammation in the literature, with shortened colon length being an indicator of inflammation. A 1-cm section of the mid-colon was removed, fixed in formalin, and stained with hematoxylin & eosin for microscopic histopathologic evaluation by a veterinary pathologist blinded to the treatments. Each tissue section received a score from 0 to 4 reflecting absence of lesion to severe, extensive lesion for each of three criteria: (1) the degree of erosion/ulceration of colon mucosa; (2) the degree of infiltration of the tissues by inflammatory cells; and (3) the degree of submucosal edema. The sum of the score of each of these criteria constitutes the histopathological score for the tissue with a zero score representing normal tissue based on all criteria, and the worst possible outcome being a score of 12.

[4] = test system: Cyp24; assay: Cyp24 mRNA expression in colon of mice after a single oral dose; assay type: in vivo; conditions: 6 hrs; for increase in Cyp24 expression in the colon: relative to untreated mice
Experimental: (§2) Mice were decapitated 6 hrs later following light anesthesia under inhaled halothane. […] Tissue samples were flushed with ice-cold phosphate-buffered saline and immediately homogenized in 1 ml of TRIzol® reagent (Invitrogen Corp., Carlsbad, Calif.). Samples were then kept frozen at −86° C. prior to processing for RNA. For processing RNA, each TRIzol® homogenate was thawed at room temperature and 500 μl placed in a clean microfuge tube, mixed thoroughly with 100 μl chloroform for 15 sec and then centrifuged at 12,000×g for 15 min at 4° C. The upper aqueous phase was removed and mixed with 0.93 volumes of 75% EtOH. The mixture was then applied to an RNeasy spin column (Qiagen Inc., Germantown, Md.) and processed as described by the manufacturer with the exception that an additional wash with 2M NaCl/2 mM EDTA (pH 4.0) was included (Das et al. J Vet Diagn Invest. 2009; 21:771-778). RNA was eluted in 50 μl of water and the concentration obtained by UV spectrometry. One microgram of RNA was then used as a template for production of cDNA in a 20-μl reaction volume using random hexamers and Superscript III as described by the manufacturer (Invitrogen, Carlsbad, Calif.). Afterwards, samples were diluted to 100 μl final volume with TE buffer and stored at −20° C. prior to PCR analysis. Quantitative real-time RT-PCR was performed using a Stratagene Mx3005p cycler (Stratagene, La Jolla, Calif.) and PerfeCTa® SYBR® Green FastMix®, ROX reagent (Quanta Biosciences, Gaithersburg, Md.). Amplification of target cDNAs was accomplished with the following primers: Aliquots (8.3 ng) of cDNA were amplified under the following conditions: 95° C. for 30 sec, followed by 45 cycles of 95° C. for 1 sec and 57° C. for 30 sec. […] Oligonucleotides were obtained from Integrated DNA Technologies (Coralville, Iowa).

[5] = Plasma calcium in the DSS mouse model of IBD; assay type: in vivo; conditions: DSS mice
Description: as §1

[6] = test system: Cyp24; assay: Cyp24 mRNA expression in duodenum of mice after a single oral dose; assay type: in vivo; conditions: for Cyp24 expression in the duodenum, induction over control mice: 24 pmol per os
Experimental: as §2

[7] = Hypercalcemic effect: plasma calcium in rats under continuous subcutaneous infusion; assay type: in vivo; conditions: for Plasma Calcium Mean ± SD: 12th day, in mg/dL (unit assumed); for Significantly greater than control? Duncan's Multiple Range Test: plasma calcium
Experimental: The pumps were filled aseptically with the appropriate dose of drug dissolved in propylene glycol. The pumps were surgically implanted under the skin on the dorsal neck and shoulder area aseptically. On the 12th day of infusion, rats were deeply anesthetized (isofluorane inhalation) and blood was collected by cardiac puncture for plasma calcium determination. The plasma calcium levels were determined by standard methods.

## C=C1/C(=C\C=C2/CCC[C@]3(C)[C@@H]([C@H](C)CCCC(C)(C)O[C@@H]4O[C@H](C(=O)O)[C@@H](O)[C@H](O)[C@H]4O)CC[C@@H]23)C[C@@H](O)C[C@@H]1O [β-gluc-1,25-D3, 25-β-glucuronide-1,25-dihydroxyvitamin D3]
[1]; 6 pmol per os, 6 hr time point
  plasma 1,25-D3 concentration: not significantly increased
[1]; 24 pmol per os
  peak plasma 1,25-D3, fold over control mouse plasma 1,25-D3: 3.5 fold
  peak plasma concentration of 1,25-D3: 325 pg/mL
  time of peak plasma 1,25-D3 concentration: approximately 3 hr
[1]; 24 pmol per os, 24 hrs after treatment
  plasma 1,25-D3 concentration: slightly below the concentration observed in control animals
[1]; 6 hrs following treatment, each dose 6-48 pmol
  levels of 1,25-D3 in the blood, 1,25-D3 versus β-gluc-1,25-D3: comparable at each concentration
[2]; DU-145, 20 nM
  Proliferation index (Mean ± SEM): 90.3 ± 2.2
[2]; DU-145, 100 nM
  Proliferation index (Mean ± SEM): 88.7 ± 2.8
[2]; DU-145 cells
  reducing cell proliferation versus native hormone: as active as the native hormone
[3]; 14 ng/day
  Histopathology score (0-12): 6.66 ± 0.53^c
  Fecal Blood Score: 0.55 ± 0.26
[3]; 14 ng/day in diet
  Colon Length: 5.78 ± 0.09 cm
  Final Body Weight: 21.91 ± 0.49 g
[3]; 70 ng/day
  Histopathology score (0-12): 6.33 ± 0.74^c
  Fecal Blood Score: 0.22 ± 0.08^c
[3]; 70 ng/day in diet
  Colon Length: 5.41 ± 0.15 cm
  Final Body Weight: 21.00 ± 0.68 g
[3]; 350 ng/day
  Histopathology score (0-12): 8.33 ± 0.64
  Fecal Blood Score: 0.88 ± 0.43
[3]; 350 ng/day in diet
  Colon Length: 4.72 ± 0.15 cm
  Final Body Weight: 19.62 ± 0.69 g
[3]; alone at 70 ng/day
  reducing inflammation: numerically better than 1,25-D3
[4]; 12 pmol per os
  colon Cyp24 response relative to the equimolar dose of 1,25-D3: about 20 times
  increase in Cyp24 expression in the colon: 60 fold
[4]; 24 pmol per os
  increase in Cyp24 in the colon over control mice: about 700 fold
[4]; 48 pmol per os
  increase in Cyp24 expression in the colon: > 400 fold
[5]; 14 ng/day in diet
  Plasma Calcium: 10.25 ± 0.33 mg/dL
[5]; 70 ng/day in diet
  Plasma Calcium: 10.12 ± 0.30 mg/dL
[5]; 350 ng/day in diet
  Plasma Calcium: 10.72 ± 0.33^d mg/dl
[5]; alone at 70 ng/day
  hypercalcemia: not accompanied by a physiologically significant increase in hypercalcemia
[6]; 3 hours
  Cyp24 expression in the duodenum, induction over control mice: 1300 fold
[6]; 6 hours
  Cyp24 expression in the duodenum, induction over control mice: 500 fold
[6]; 6, 12, 24, 48 pmol per os, 6 hrs
  induction of Cyp24 in the duodenum versus analogous dose of 1,25-D3: consistently less effective than the analogous dose of 1,25-D3
[7]; 14 ng/day continuous s.c. infusion
  Plasma Calcium Mean ± SD: 10.63 ± 0.20
[7]; 70 ng/day
  increase in plasma calcium: no increase in plasma calcium
[7]; 70 ng/day continuous s.c. infusion
  Plasma Calcium Mean ± SD: 10.71 ± 0.15
[7]; 250 ng/day continuous s.c. infusion
  Plasma Calcium Mean ± SD: 11.02 ± 0.49
[7]; 350 ng/day continuous s.c. infusion
  Plasma Calcium Mean ± SD: 11.00 ± 0.25
[7]; 500 ng/day
  symptoms of hypercalcemia (feed intake): no evidence of a reduction in feed intake or other symptoms
  Significantly greater than control? Duncan's Multiple Range Test: Yes
[7]; 500 ng/day continuous s.c. infusion
  Plasma Calcium Mean ± SD: 11.33 ± 0.38
[7]; continuous s.c. infusion
  lowest dose inducing a statistically significant increase in plasma calcium levels: 250 ng/day
[7]; 250 ng/day
  Significantly greater than control? Duncan's Multiple Range Test: Yes
[7]; 350 ng/day
  Significantly greater than control? Duncan's Multiple Range Test: Yes
[7]; versus 1,25-D3
  hypercalcemic effect, fold less than the native hormone: at least 4 fold
